Measured values as given in patent US20240277631A1, “SMALL MOLECULE DRUG (ELP-004) TO PREVENT BONE LESIONS CAUSED BY MULTIPLE MYELOMA” (West Virginia University Board of Governors on behalf of …, priority 2023, published 2024).
Like-named read-outs stand apart in the source and are kept apart here.

Experiments:
[1] = test system: U266 cells; experiment: U266 cell viability (Axenin V method) and cell counts; assay type: cell-based, human
Procedure: The U266 cells were incubated in the presence of the noted concentrations of ELP-004, and the viability of the cells was determined at the indicated times using the Axenin V method.
Initial treatment with N-methyl dichloropropionaniline (N-MeDCPA, ELP-004) was examined. The N-MeDCPA was designed and synthesized and tested in laboratory experiments. A treatment scheme with plated cells was devised using N-MeDCPA as compared to a DMSO vehicle only, along with 100 μM and 200 μM dosages on U266 cell samples. U266 is a B lymphocyte isolated from the peripheral blood of a patient with myeloma and is commonly used in immune system disorder research and immunology research. The cells were allowed to incubate then counted under a 10× lens.
As may be seen in FIG. 1, the growth curve of cell samples as treated with the varying concentrations versus a DMSO vehicle can be observed. The number of cells per milliliter was calculated after examination and counting under the lens.
The effect of ELP-004 (i.e. N-MeDCPA) on […] (a myeloma cell line) proliferation is described above.

[2] = test system: Murine BMSMCs; experiment: cytosolic Ca2+ levels and NFAT nuclear translocation during osteoclastogenesis; assay type: cell-based; details: 100 nM
[3] = test system: Murine BMSMCs; experiment: TNFα-induced osteoclast fusion (TRAP, multinucleation, marker mRNA); assay type: cell-based; details: RANKL/TNFα
Procedure: (A_C) Murine BMSMCs were grown for up to 21 days in media supplemented with 50 ng/ml m-CSF, […] RANKL and 2 ng/ml TNFα. Each experiment was repeated a minimum of three times. Cells were fixed and stained for Tartrate Resistant Acid Phosphatase (TRAP)_activity at days 1, 7, 14 and 21. In schematic A, the number of TRAP positive osteoclast-like cells (out of 100 cells) were counted for each time point; TRAP intensity was also calculated. In schematic B, at each time point the number of nuclei for each cell was counted and the average number of nuclei per cell for 100 cells is shown. […] The expression patterns of osteoclast markers was unaffected by ELP-004, indicating selective inhibition of specific features of osteoclastogenesis.

[4] = test system: Jurkat cells; assay type: cell-based; set-up: dose or concentration left out as unconfirmed; details: human
Procedure: wherein each X is chlorine, Y is a methyl group, and R is an ethyl group. N-MeDCPA is synthesized as described in U.S. Pat. No. 10,682,320, which is incorporated by reference herein. ELP-004 (N-MeDCPA) precludes metabolizing to two toxic metabolites, N—OH-dichloroaniline and 6-OH-dichloroaniline. In vitro assays for toxicity caused by ELP-004 using Jurkat cells show 50% toxicity at […] and <2% toxicity at […].
ELP-004 (i.e. N-MeDCPA) was specifically developed to preclude metabolizing to two toxic metabolites, N—OH-dichloroaniline and 6-OH-dichloroaniline. In vitro assays for toxicity caused by ELP-004 using Jurkat cells show 50% toxicity at […] and <2% toxicity at […].

[5] = water solubility; assay type: physicochemical
Description: Those persons of ordinary skill in the art will understand that ELP-004 may be solubilized in ethanol and then diluted in sterile saline. These methods include wherein the route of administration may be, for example but not limited to, the intravenous, intramuscular, or subcutaneous routes, or via the oral route of administration.

[6] = ability to cross the blood brain barrier
Description: (§1) ELP-004 has been evaluated for its ability to cross the blood brain barrier. […] Other medications, such as but not limited to bupropion, are known to cause problems due to dopamine transporter binding.

[7] = target: dopamine transporter (Homo sapiens, UniProt Q01959); experiment: dopamine transport
Sequence of dopamine transporter (Q01959 whole entry): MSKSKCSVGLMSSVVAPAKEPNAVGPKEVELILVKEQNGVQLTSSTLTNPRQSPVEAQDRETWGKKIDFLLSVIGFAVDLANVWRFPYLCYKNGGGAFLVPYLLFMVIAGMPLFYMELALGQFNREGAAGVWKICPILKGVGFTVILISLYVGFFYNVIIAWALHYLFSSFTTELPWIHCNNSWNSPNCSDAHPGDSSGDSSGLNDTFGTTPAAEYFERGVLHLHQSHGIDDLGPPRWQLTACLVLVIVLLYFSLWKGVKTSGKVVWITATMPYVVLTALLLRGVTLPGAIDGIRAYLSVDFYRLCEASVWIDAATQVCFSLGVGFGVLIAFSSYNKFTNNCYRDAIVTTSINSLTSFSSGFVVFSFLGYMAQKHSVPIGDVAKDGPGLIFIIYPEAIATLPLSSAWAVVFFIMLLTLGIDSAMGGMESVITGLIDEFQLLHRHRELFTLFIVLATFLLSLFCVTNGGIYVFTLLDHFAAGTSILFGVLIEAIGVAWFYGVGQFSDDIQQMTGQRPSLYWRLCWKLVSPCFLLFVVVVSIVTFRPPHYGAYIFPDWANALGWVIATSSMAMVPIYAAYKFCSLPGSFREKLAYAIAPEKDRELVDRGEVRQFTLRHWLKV
Description: as §1

[8] = test system: CYP enzymes; experiment: induction of CYP enzymes; assay type: in vitro ADME
[9] = target: CYP2D6 (Homo sapiens, UniProt P10635); experiment: stability with recombinant CYP2D6; assay type: in vitro ADME
Sequence of CYP2D6 (P10635 whole entry): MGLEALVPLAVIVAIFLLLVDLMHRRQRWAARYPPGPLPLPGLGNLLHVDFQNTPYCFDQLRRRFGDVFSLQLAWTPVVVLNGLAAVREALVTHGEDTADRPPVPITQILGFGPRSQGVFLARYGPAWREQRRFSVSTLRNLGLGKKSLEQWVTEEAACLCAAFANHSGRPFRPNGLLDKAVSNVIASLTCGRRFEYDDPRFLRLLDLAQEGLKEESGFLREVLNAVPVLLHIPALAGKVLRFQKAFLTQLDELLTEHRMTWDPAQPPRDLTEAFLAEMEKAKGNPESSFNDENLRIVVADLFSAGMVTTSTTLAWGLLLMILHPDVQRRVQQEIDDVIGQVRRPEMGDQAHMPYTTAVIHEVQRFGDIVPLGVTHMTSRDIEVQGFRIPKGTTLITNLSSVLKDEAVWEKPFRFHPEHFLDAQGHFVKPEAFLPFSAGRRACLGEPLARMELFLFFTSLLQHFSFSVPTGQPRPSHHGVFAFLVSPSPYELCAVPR
Procedure: (§2) Depicted in table 2 is cytochrome P450 phenotyping and inhibition by ELP-004. The stability of ELP-004 was tested in the presence of recombinant enzymes CYP1A2, CYP2B6, CYP2C8, CYP2C9, CYP2C19, CYP2D6, and CYP3A4. ELP-004 (1 μM) was incubated with recombinant enzymes and NADPH. The amount of ELP-004 remaining at each timepoint was analyzed by LC-MS/MS. Incubations in control recombinant enzymes were also performed to assess non-enzymatic mediated stability. The intrinsic clearance of ELP-004 was determined. […] A decrease in the formation of the metabolite compared to vehicle control is used to calculate an IC50 value. Metabolite peak area ratio response as a percentage of vehicle control is plotted against the test compound concentration.

[10] = test system: CYP isoforms CYP1A2, CYP2B6, CYP2C8, CYP2C9, CYP2C19, CYP2D6, and CYP3A4; experiment: reversible CYP inhibition in human liver microsomes, summary over all isoforms; assay type: in vitro ADME; details: any CYP, concentration range 0.02-25 μM
Procedure: as §2

[11] = test system: osteoclasts; experiment: development of osteoclasts (osteoclastogenesis); assay type: cell-based

For CCC(=O)N(C)c1ccc(Cl)c(Cl)c1 [ELP-004, N-(3,4-dichlorophenyl)-N-methylpropanamide], which IC50 ([1]; Homo sapiens, U-266, U266 cells, viability by Axenin V method, calculated using two methods) is on record?
Its IC50 is 154 µM.

What about the myeloma cell proliferation ([1]; U66 (U266) myeloma cell line) of the same compound?
Its myeloma cell proliferation is “inhibits myeloma cell proliferation”.

And the NFAT nuclear translocation ([2]; LTB4-induced changes)?
Its NFAT nuclear translocation is “significantly inhibited”.

And the “cytosolic Ca2+ levels” value ([2]; LTB4-induced changes)?
Its value is “significantly inhibited”.

What about the NFAT nuclear translocation ([2]; RANKL-induced osteoclastogenesis) of the same compound?
Its NFAT nuclear translocation is “had no effect”.

What about the NFAT nuclear translocation ([2]; TNFα-induced changes) of the same compound?
Its NFAT nuclear translocation is “significantly inhibited”.

And the “cytosolic Ca2+ levels” value ([2]; TNFα-induced changes)?
The value was “significantly inhibited”.

What about the TRAP activity [3] of the same compound?
Its TRAP activity is “completed abrogated”.

And the “expression patterns of osteoclast markers” value [3]?
Its value is “unaffected”.

And the multinucleation [3]?
The multinucleation was “severely attenuated”.

What about the toxicity [4]; 200 of the same compound?
The toxicity was < 2%.

What about the toxicity [4]; 800 of the same compound?
The toxicity was 50%.

What about the water solubility [5] of the same compound?
Its water solubility is “not water soluble”.

What about the “crossing of the blood brain barrier” value [6] of the same compound?
Its value is “does not cross the blood brain barrier”.

What about the “problems with dopamine transport” value [7] of the same compound?
Its value is “does not cause problems with dopamine transport”.

And the “effect on induction of CYP enzymes” value [8]?
The value was “no deleterious effect”.

What about the microsomal CLint at 1 μM ([9]; human, recombinant CYP2D6, intrinsic clearance, read-out: Recombinant CYP CLINT) of the same compound?
The microsomal CLint at 1 μM was < 0.154 µL/min/mg.

And the “metabolism by recombinant enzyme” value ([9]; recombinant CYP2D6)?
Its value is “not metabolized”.

What about the “ELP-004 t1/2” value ([9]; recombinant CYP2D6, 1 μM, NADPH) of the same compound?
Its value is >180 min.

What about the “reversible inhibition of CYP isoforms” value [10] of the same compound?
The value was “did not inhibit”.

What about the development of osteoclasts ([11]; general statement) of the same compound?
The development of osteoclasts was “inhibits the development of osteoclasts in a dose dependent manner”.

What about the osteoclast maturation ([11]; summary statement) of the same compound?
Its osteoclast maturation is “suppressed”.
